What was measured:
[1] = target: T1, RNA-directed RNA polymerase (Hepacivirus hominis, UniProt O39930); assay: Inhibition of HCV 1a NS5B RNA polymerase; parameters: species or system Hepatitis C virus subtype 1a
[2] = target: T1, RNA-directed RNA polymerase; assay: Inhibition of HCV 1b NS5B RNA polymerase; parameters: species or system Hepatitis C virus subtype 1b
[3] = Protein binding in plasma; assay type: ADME, cell-free; conditions: read-out: PPB
Hepatitis C virus [4] = assay: Inhibition of HCV 1b replication in presence of 5% fetal calf serum; assay type: functional, organism-based, Hepatitis C virus subtype 1b
Hepatitis C virus [5] = assay: Inhibition of HCV 1b replication in presence of 40% human serum; assay type: functional, organism-based, Hepatitis C virus subtype 1b
[6] = Half life in rat at 5 mg/kg, po; assay type: ADME, organism-based; parameters: dose 5 mg/kg, route oral; conditions: in vivo
[7] = Clearance in rat at 5 mg/kg, po; assay type: ADME, organism-based; parameters: dose 5 mg/kg, route oral; conditions: in vivo
[8] = Bioavailability in rat at 5 mg/kg, po; assay type: ADME, organism-based; conditions: in vivo
[9] = Cmax in rat at 5 mg/kg, po; assay type: ADME, organism-based; parameters: dose 5 mg/kg, route oral; conditions: in vivo
[10] = Ratio of drug level in liver to plasma in rat after 8 hrs; assay type: ADME, organism-based

T1 sequence (O39930 whole entry): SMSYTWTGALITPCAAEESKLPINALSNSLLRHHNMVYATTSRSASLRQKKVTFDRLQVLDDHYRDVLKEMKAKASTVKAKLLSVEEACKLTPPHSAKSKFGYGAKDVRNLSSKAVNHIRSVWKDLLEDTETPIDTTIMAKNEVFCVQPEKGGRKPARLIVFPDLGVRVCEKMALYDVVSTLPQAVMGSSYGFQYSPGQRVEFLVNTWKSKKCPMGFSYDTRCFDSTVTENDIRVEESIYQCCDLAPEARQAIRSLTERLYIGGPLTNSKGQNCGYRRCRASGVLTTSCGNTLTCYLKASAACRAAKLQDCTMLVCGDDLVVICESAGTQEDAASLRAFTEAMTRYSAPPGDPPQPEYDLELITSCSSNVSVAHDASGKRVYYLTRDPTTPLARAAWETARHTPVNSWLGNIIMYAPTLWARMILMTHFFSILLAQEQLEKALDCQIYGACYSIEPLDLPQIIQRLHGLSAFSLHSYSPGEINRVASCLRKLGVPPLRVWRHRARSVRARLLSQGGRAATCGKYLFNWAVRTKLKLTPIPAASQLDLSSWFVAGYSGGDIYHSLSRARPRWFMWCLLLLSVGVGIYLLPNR

| Structure (SMILES) | IC50 [1] [nM] | IC50 [2] [nM] | further results |
| --- | --- | --- | --- |
| O=c1c(C2=NS(=O)(=O)c3ccccc3N2)c(O)c2cccnc2n1Cc1ccccc1 | 5800 |  |  |
| CC(C)CCn1c(=O)c(C2=NS(=O)(=O)c3ccccc3N2)c(O)c2cccnc21 | 810 | 41 |  |
| CC(C)CCn1c(=O)c(C2=NS(=O)(=O)c3cc(OCC(=O)N(C)C)ccc3N2)c(O)c2cccnc21 | 934 | 70 |  |
| CC(C)CCn1c(=O)c(C2=Nc3ccc(NCC#N)cc3S(=O)(=O)N2)c(O)c2cccnc21 | 120 | 24 |  |
| CC(C)CCn1c(=O)c(C2=Nc3ccc(OCc4ccccc4)cc3S(=O)(=O)N2)c(O)c2cccnc21 |  | 1490 |  |
| CC(C)CCn1c(=O)c(C2=NS(=O)(=O)c3cc(NS(C)(=O)=O)ccc3N2)c(O)c2cccnc21 | 2 |  | fraction unbound [3]: < 0.01; EC50 (Hepatitis C virus [4]): 3 nM; EC50 (Hepatitis C virus [5]): 1310 nM |
| CC(C)CCn1c(=O)c(C2=NS(=O)(=O)c3cc(NS(=O)(=O)C(C)C)ccc3N2)c(O)c2cccnc21 | 8 | 3 | EC50 (Hepatitis C virus [4]): 110 nM |
| CC(C)CCn1c(=O)c(C2=Nc3ccc(NS(=O)(=O)c4ccccc4)cc3S(=O)(=O)N2)c(O)c2cccnc21 | 41 | 7 | EC50 (Hepatitis C virus [4]): 1690 nM |
| COc1ccc2c(c1)S(=O)(=O)NC(c1c(O)c3cccnc3n(Cc3ccccc3)c1=O)=N2 | 8310 | 76 |  |
| O=c1c(C2=NS(=O)(=O)c3cccc(O)c3N2)c(O)c2cccnc2n1Cc1ccccc1 | 8370 | 54 |  |
| O=c1c(C2=NS(=O)(=O)c3ccc(O)cc3N2)c(O)c2cccnc2n1Cc1ccccc1 |  | 2510 |  |
| CC(C)CCn1c(=O)c(C2=Nc3ccc(OCC(N)=O)cc3S(=O)(=O)N2)c(O)c2cccnc21 | 46 | 16 | half-life [6]: 2 h; CL/F [7]: 12.3 mL/min/kg; bioavailability [8]: 35%; fraction unbound [3]: < 0.01; EC50 (Hepatitis C virus [4]): 78 nM; Cmax [9]: 180 nM; EC50 (Hepatitis C virus [5]): 2740 nM; Kp at 8 h [10]: 54 |
| Cc1ccc2c(c1)S(=O)(=O)NC(c1c(O)c3cccnc3n(Cc3ccccc3)c1=O)=N2 | 25700 | 230 |  |
| CCCCS(=O)(=O)Nc1ccc2c(c1)S(=O)(=O)NC(c1c(O)c3cccnc3n(CCC(C)C)c1=O)=N2 | 22 | 5 | EC50 (Hepatitis C virus [4]): 1000 nM |
| CC(C)CCn1c(=O)c(C2=NS(=O)(=O)c3cc(OCC(=O)O)ccc3N2)c(O)c2cccnc21 | 367 | 57 |  |
| O=c1c(C2=NS(=O)(=O)c3cccc(Br)c3N2)c(O)c2cccnc2n1Cc1ccccc1 | 6200 | 1170 |  |

| Structure (SMILES) | IC50 [1] [nM] | IC50 [2] [nM] | further results |
| --- | --- | --- | --- |
| COc1ccc2c(c1)N=C(c1c(O)c3cccnc3n(Cc3ccccc3)c1=O)NS2(=O)=O |  | 3900 |  |
| CC(C)CCn1c(=O)c(C2=Nc3ccc(N)cc3S(=O)(=O)N2)c(O)c2cccnc21 | 310 | 23 | EC50 (Hepatitis C virus [4]): 480 nM |
| CCCOc1ccc2c(c1)S(=O)(=O)NC(c1c(O)c3cccnc3n(CCC(C)C)c1=O)=N2 | 1620 | 930 |  |
| CC(C)CCn1c(=O)c(C2=Nc3ccc(OCC(=O)OC(C)(C)C)cc3S(=O)(=O)N2)c(O)c2cccnc21 | 5000 | 850 |  |
| COc1cccc2c1NC(c1c(O)c3cccnc3n(Cc3ccccc3)c1=O)=NS2(=O)=O | 18000 | 2120 |  |
| COc1cccc2c1N=C(c1c(O)c3cccnc3n(CCC(C)C)c1=O)NS2(=O)=O | 17600 | 1170 |  |
| COc1ccc2c(c1)S(=O)(=O)N=C(c1c(O)c3cccnc3n(CCC(C)C)c1=O)N2 | 1130 | 65 |  |
| O=c1c(C2=Nc3ccc(Br)cc3S(=O)(=O)N2)c(O)c2cccnc2n1Cc1ccccc1 | 16800 | 756 |  |
| CC(C)CCn1c(=O)c(C2=NS(=O)(=O)c3cc(NC(=O)C(F)(F)F)ccc3N2)c(O)c2cccnc21 | 906 | 70 |  |
| CC(C)CCn1c(=O)c(C2=NS(=O)(=O)c3cc(O)ccc3N2)c(O)c2cccnc21 | 390 | 42 |  |
| CC(C)CCn1c(=O)c(C2=NS(=O)(=O)c3cc(OCC#N)ccc3N2)c(O)c2cccnc21 | 141 | 25 |  |
| Cc1cccc2c1N=C(c1c(O)c3cccnc3n(Cc3ccccc3)c1=O)NS2(=O)=O | 6700 | 96 |  |
| CC(C)CCn1c(=O)c(C2=Nc3ccc(NCC(N)=O)cc3S(=O)(=O)N2)c(O)c2cccnc21 | 470 | 34 | EC50 (Hepatitis C virus [4]): 450 nM |
| CNC(=O)COc1ccc2c(c1)S(=O)(=O)NC(c1c(O)c3cccnc3n(CCC(C)C)c1=O)=N2 | 180 | 80 |  |
| CC(C)CCn1c(=O)c(C2=Nc3ccc(OCCN)cc3S(=O)(=O)N2)c(O)c2cccnc21 | 637 | 51 |  |

Reference: ChEMBL document CHEMBL1138030, “Inhibitors of HCV NS5B polymerase: synthesis and structure-activity relationships of N-1-benzyl and N-1-[3-methylbutyl]-4-hydroxy-1,8-naphthyridon-3-yl benzothiadiazine analogs containing substituents on the aromatic ring” (Bioorg Med Chem Lett, 2006)
